Measured values from patent US20080242869A1, “Tri(Cyclo) Substituted Amide Compounds” (priority 2004, published 2008).

Target: T1, GST-GK, derived from human liver GK (Homo sapiens, UniProt P35557)
T1 sequence (P35557 1-466 isoform P35557-2): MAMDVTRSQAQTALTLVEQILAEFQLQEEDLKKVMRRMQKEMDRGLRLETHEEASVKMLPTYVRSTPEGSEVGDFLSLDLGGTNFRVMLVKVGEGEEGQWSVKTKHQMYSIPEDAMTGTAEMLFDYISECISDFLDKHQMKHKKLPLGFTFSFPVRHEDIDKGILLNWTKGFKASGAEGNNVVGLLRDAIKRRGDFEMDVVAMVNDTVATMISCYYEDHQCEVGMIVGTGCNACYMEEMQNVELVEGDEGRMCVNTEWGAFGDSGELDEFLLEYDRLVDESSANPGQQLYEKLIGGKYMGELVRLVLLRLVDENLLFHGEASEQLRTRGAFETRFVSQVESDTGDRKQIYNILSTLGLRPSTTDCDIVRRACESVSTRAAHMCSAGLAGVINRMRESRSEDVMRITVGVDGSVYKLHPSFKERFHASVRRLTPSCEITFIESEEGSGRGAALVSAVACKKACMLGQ
Test: In vitro GK activity: G6P production by GST-GK coupled to NADPH generation with G6PDH
Type: biochemical
Conditions: 5 mM D-Glc, 30° C., OD 340 nm over 10 min
Description: Using a protocol similar to that described in WO2000/58293, GK activity may be assayed by coupling the production of G6P by GST-GK to the generation of NADPH with G6PDH as the coupling enzyme.
The GK assay is performed at 30° C. in a flat bottom 96-well assay plate from Costar with a final incubation volume of 100 μL. The assay buffer contains: 25 mM Hepes buffer (pH 7.4), 12.5 mM KCl, 5 mM D-Glc, 5 mM ATP, 6.25 mM NADP, 25 mM MgCl2, 1 mM dithiothreitol, test compound or 5% DMSO, 3.0 unit/mL G6PDH, and 0.4 μL/mL GST-GK, derived from human liver GK. ATP, G6PDH, and NADP may be purchased from Roche Diagnostics. The other reagents are >98% pure and may be purchased from Kanto Chemicals. The test compounds are dissolved in DMSO, before being added to the assay buffer without ATP. This mix is preincubated in the temperature controlled chamber of a SPECTRAmax 250 microplate spectrophotometer (Molecular Devices Corporation, Sunnyvale, Calif.) for 10 min, then the reaction started by the addition of 10 μL ATP solution.
After starting the reaction, the increase in optical density (OD) at 340 nm is monitored over a 10 min incubation period as a measure of GK activity. […] The compound concentrations that produced a 50% increase in GK activity (i.e. FA1.5) are calculated. […]

With `O=C1CC[C@H](C[C@@H](C(=O)Nc2ncc(F)s2)c2ccc(S(=O)(=O)C3CC3)cc2)C1` [Example 7, 2(R)-2-(4-Cyclopropanesulfonylphenyl)-N-(5-fluorothiazol-2-yl)-3-((R)-3-oxocyclopentyl)propionamide] the “maximum activation of GK” value was “greater than 4 fold” and the EC50 (read-out: EC50 (concentration of test compound which produces 50% activation)) was under 500 nM.
